# In patent US11180482B2, “Anilinopyrimidines as haematopoietic progenitor kinase 1 (HPK1) inhibitors” (Ariad Pharmaceuticals, Inc., priority 2016, dated 2021):
# Target: Wild Type HPK1 (MAP4K1) Kinase (Homo sapiens (Human), UniProt Q92918)
# Test: HPK1 Assay (Caliper EZ reader, fluorescein tagged peptide substrate)
# Assay type: biochemical
# Conditions: ATP 500 micromolar, kinase 6 nM, pH 7.4
# Description: The enzymatic activity of Wild Type HPK1 (MAP4K1) Kinase was measured in the presence or absence of an inhibitor compound of the present disclosure by preparation of a reaction mixture containing a fluorescein tagged peptide (2 micromolar final concentration), ATP (Adenosine Triphosphate, 500 micromolar final concentration) and Wild Type kinase (6 nM final concentration) in a buffer system comprising 50 mM HEPES (Buffer), 3 mM MgCl2, 5% w/v Trehalose, 0.01% Brij 35 (Detergent), 0.1% Pluronic F127 (Surfactant), 0.1 mM EDTA (Ethylenediaminetetraacetic acid), 0.1 mM EGTA (ethylene glycol-bis(β-aminoethyl ether)-N,N,N′,N′-tetraacetic acid) and 1 mM DTT (Dithiothreitol) and at a pH of 7.4. The reactions were quenched by the addition of EDTA to a final concentration of 25 mM. A Caliper EZ reader was used to measure the extent of substrate to product conversion.
# The peptide substrate used in the HPK1 assay was designed based on the amino acid sequence surrounding serine residue 376 of SLP76-Lymphocyte cytosolic protein 2 (a known intracellular substrate of HPK1). This sequence SSFPQSAsLPPYFSQ was modified as follows for use in Caliper assays of HPK1: the serine residues on either side of serine 376 were replaced with alanine, three lysine residues were added at the […] and a fluorescein tag (FAM) was attached to the […] to produce the sequence, FAM-FPQAAsLPPYFAKKK.
# Wild Type HPK1 (MAP4K1) Kinase, sequence (Q92918 whole entry, species assumed): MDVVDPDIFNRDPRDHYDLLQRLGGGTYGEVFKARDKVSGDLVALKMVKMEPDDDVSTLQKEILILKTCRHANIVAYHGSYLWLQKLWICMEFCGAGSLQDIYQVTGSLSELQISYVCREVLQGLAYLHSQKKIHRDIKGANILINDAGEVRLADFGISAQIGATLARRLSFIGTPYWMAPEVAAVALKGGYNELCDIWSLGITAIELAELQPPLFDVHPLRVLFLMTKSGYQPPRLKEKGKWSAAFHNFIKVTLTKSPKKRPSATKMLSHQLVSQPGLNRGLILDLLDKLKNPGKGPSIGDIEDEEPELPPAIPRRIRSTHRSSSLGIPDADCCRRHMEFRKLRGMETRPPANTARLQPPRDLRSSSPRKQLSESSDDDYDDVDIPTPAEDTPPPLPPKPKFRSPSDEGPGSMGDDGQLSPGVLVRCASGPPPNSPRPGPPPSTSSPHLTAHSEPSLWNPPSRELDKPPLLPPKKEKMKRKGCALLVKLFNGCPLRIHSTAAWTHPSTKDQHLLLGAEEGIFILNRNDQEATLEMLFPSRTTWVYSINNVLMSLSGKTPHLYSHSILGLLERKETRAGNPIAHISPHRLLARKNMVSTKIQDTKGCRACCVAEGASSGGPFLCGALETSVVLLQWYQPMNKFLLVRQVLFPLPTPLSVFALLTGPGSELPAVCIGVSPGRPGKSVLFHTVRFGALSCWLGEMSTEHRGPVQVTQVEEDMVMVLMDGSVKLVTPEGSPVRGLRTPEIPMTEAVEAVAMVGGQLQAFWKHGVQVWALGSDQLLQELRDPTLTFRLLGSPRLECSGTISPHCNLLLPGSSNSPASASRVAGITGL
row,SMILES,IC50
1,"COc1cc2c(cc1Nc1ncc(Cl)c(Nc3ccccc3P(C)(C)=O)n1)CN(C)C2 [Example I-1, (2-((5-Chloro-2-((6-methoxy-2-methylisoindolin-5-yl)amino)pyrimidin-4-yl)amino)phenyl)dimethylphosphine oxide]",10 to 100 nM
2,"CN1CCc2cc(Cl)c(Nc3ncc(Cl)c(Nc4ccccc4P(C)(C)=O)n3)cc2C1 [Example I-6, 5-chloro-N^2-(6-chloro-2-methyl-3,4-dihydro-1H-isoquinolin-7-yl)-N^4-(2-dimethylphosphorylphenyl)pyrimidine-2,4-diamine]",< 5 nM
3,"C=Cc1cc2c(cc1Nc1ncc(Cl)c(Nc3ccccc3P(C)(C)=O)n1)CN(C)CC2 [Example I-8, 5-chloro-N^4-(2-dimethylphosphorylphenyl)-N^2-(2-methyl-6-vinyl-3,4-dihydro-1H-isoquinolin-7-yl)pyrimidine-2,4-diamine]",5 to 10 nM
4,"COc1c(Nc2ncc(Cl)c(Nc3ccccc3P(C)(C)=O)n2)cc2c(c1N)CC1CCCCN1C2 (stereo not shown) [Example I-9, N^8-[5-chloro-4-(2-dimethylphosphorylanilino)pyrimidin-2-yl]-9-methoxy-2,3,4,6,11,11a-hexahydro-1H-benzo[b]quinolizine-8,10-diamine]",10 to 100 nM
5,"COc1cc2c(cc1Nc1ncc(Cl)c(Nc3ccccc3P(C)(C)=O)n1)CN1CCCCC1C2 (stereo not shown) [Example I-10, 5-chloro-N^4-(2-dimethylphosphorylphenyl)N^2-(9-methoxy-2,3,4,6,11,11a-hexahydro-1H-benzo[b]quinolizin-8-yl)pyrimidine-2,4-diamine]",< 5 nM
6,"COc1cc2c(cc1Nc1ncc(Cl)c(Nc3ccccc3P(C)(C)=O)n1)CN(C(C)C)CC2 [Example I-11, (2-((5-chloro-2-((2-isopropyl-6-methoxy-1,2,3,4-tetrahydroisoquinolin-7-yl)amino)pyrimidin-4-yl)amino)phenyl)dimethylphosphine oxide]",< 5 nM
7,"COc1cc2c(cc1Nc1ncc(Cl)c(Nc3ccccc3P(C)(C)=O)n1)[C@@H](N(C)C)CCC2 [Example I-15, (S)-(2-((5-chloro-2-((8-(dimethylamino)-3-methoxy-5,6,7,8-tetrahydronaphthalen-2-yl)amino)pyrimidin-4-yl)amino)phenyl)dimethylphosphine oxide]",100 to 10000 nM
8,"COc1cc2c(cc1Nc1ncc(Cl)c(Nc3ccccc3P(C)(C)=O)n1)CC(N(C)C)C2 (stereo not shown) [Example I-17, (2-((5-chloro-2-((2-(dimethylamino)-6-methoxy-2,3-dihydro-1H-inden-5-yl)amino)pyrimidin-4-yl)amino)phenyl)dimethylphosphine oxide]",10 to 100 nM
9,"CCP(=O)(CC)c1ccccc1Nc1nc(Nc2cc3c(cc2OC)CCN(C)C3)ncc1Cl [Example I-19, (2-((5-chloro-2-((6-methoxy-2-methyl-1,2,3,4-tetrahydroisoquinolin-7-yl)amino)pyrimidin-4-yl)amino)phenyl)diethylphosphine oxide]",< 5 nM
10,"COc1cc2c(cc1Nc1ncc(OC)c(Nc3ccccc3P(C)(C)=O)n1)CN(C)CC2 [Example I-23, (2-((5-methoxy-2-((6-methoxy-2-methyl-1,2,3,4-tetrahydroisoquinolin-7-yl)amino)pyrimidin-4-yl)amino)phenyl)dimethylphosphine oxide]",5 to 10 nM
11,"CN1CCc2c(Br)cc(Nc3ncc(Cl)c(Nc4ccccc4P(C)(C)=O)n3)cc2C1 [Example I-24, (2-((2-((5-bromo-2-methyl-1,2,3,4-tetrahydroisoquinolin-7-yl)amino)-5-chloropyrimidin-4-yl)amino)phenyl)dimethylphosphine oxide]",< 5 nM
12,"COc1cc2c(cc1Nc1nccc(Nc3ccccc3P(C)(C)=O)n1)CN(C)CC2 [Example I-25, (2-((2-((6-methoxy-2-methyl-1,2,3,4-tetrahydroisoquinolin-7-yl)amino)pyrimidin-4-yl)amino)phenyl)dimethylphosphine oxide]",100 to 10000 nM
13,"COc1cc2c(cc1Nc1ncc(Cl)c(Nc3ccccc3P(C)(C)=O)n1)C(C)(C)N(C)CC2 [Example I-28, (2-((5-chloro-2-((6-methoxy-1,1,2-trimethyl-1,2,3,4-tetrahydroisoquinolin-7-yl)amino)pyrimidin-4-yl)amino)phenyl)dimethylphosphine oxide]",10 to 100 nM

# The next lines start with the values.
row,IC50,SMILES
1,< 5 nM,"COc1cc2c(cc1Nc1ncc(Cl)c(Nc3ccccc3P(C)(C)=O)n1)CN(C)CC2 [Example I-2, (2-((5-chloro-2-((6-methoxy-2-methyl-1,2,3,4-tetrahydroisoquinolin-7-yl)amino)pyrimidin-4-yl)amino)phenyl)dimethylphosphine oxide]"
2,10 to 100 nM,"COc1cc2c(cc1Nc1ncc(Cl)c(Nc3ccccc3P(C)(C)=O)n1)CCN(C)CC2 [Example I-3, (2-((5-chloro-2-((8-methoxy-3-methyl-2,3,4,5-tetrahydro-1H-benzo[d]azepin-7-yl)amino)pyrimidin-4-yl)amino)phenyl)dimethylphosphine oxide]"
3,10 to 100 nM,"COc1cc2c(cc1Nc1ncc(Cl)c(Nc3ccccc3P(C)(C)=O)n1)CCCN(C)C2 [Example I-4, (2-((5-chloro-2-((8-methoxy-2-methyl-2,3,4,5-tetrahydro-1H-benzo[c]azepin-7-yl)amino)pyrimidin-4-yl)amino)phenyl)dimethylphosphine oxide]"
4,< 5 nM,"CN1CCc2cc(F)c(Nc3ncc(Cl)c(Nc4ccccc4P(C)(C)=O)n3)cc2C1 [Example I-5, (2-((5-chloro-2-((6-fluoro-2-methyl-1,2,3,4-tetrahydroisoquinolin-7-yl)amino)pyrimidin-4-yl)amino)phenyl)dimethylphosphine oxide]"
5,5 to 10 nM,"CCc1cc2c(cc1Nc1ncc(Cl)c(Nc3ccccc3P(C)(C)=O)n1)CN(C)CC2 [Example I-7, 5-chloro-N^4-(2-dimethylphosphorylphenyl)-N^2-(6-ethyl-2-methyl-3,4-dihydro-1H-isoquinolin-7-yl)pyrimidine-2,4-diamine]"
6,< 5 nM,"CCN1CCc2cc(OC)c(Nc3ncc(Cl)c(Nc4ccccc4P(C)(C)=O)n3)cc2C1 [Example I-12, (2-((5-chloro-2-((2-ethyl-6-methoxy-1,2,3,4-tetrahydroisoquinolin-7-yl)amino)pyrimidin-4-yl)amino)phenyl)dimethylphoshine oxide]"
7,10 to 100 nM,"COc1cc2c(cc1Nc1ncc(Cl)c(Nc3ccccc3P(C)(C)=O)n1)[C@H](N(C)C)CCC2 [Example I-13, (R)-(2-((5-chloro-2-((8-(dimethylamino)-3-methoxy-5,6,7,8-tetrahydronaphthalen-2-yl)amino)pyrimidin-4-yl)amino)phenyl)dimethylphosphine oxide]"
8,5 to 10 nM,"COc1cc2c(cc1Nc1ncc(Cl)c(Nc3ccccc3P(C)(C)=O)n1)[C@H](N(C)C)CC2 [Example I-14, (R)-(2-((5-chloro-2-((3-(dimethylamino)-6-methoxy-2,3-dihydro-1H-inden-5-yl)amino)pyrimidin-4-yl)amino)phenyl)dimethylphosphine oxide]"
9,100 to 10000 nM,"COc1cc2c(cc1Nc1ncc(Cl)c(Nc3ccccc3P(C)(C)=O)n1)[C@@H](N(C)C)CC2 [Example I-16, (S)-(2-((5-chloro-2-((3-(dimethylamino)-6-methoxy-2,3-dihydro-1H-inden-5-yl)amino)pyrimidin-4-yl)amino)phenyl)dimethylphosphine oxide]"
10,< 5 nM,"COc1cc2c(cc1Nc1ncc(Cl)c(Nc3ccccc3P(C)(C)=O)n1)CCN(C)C2 [Example I-18, (2-((5-chloro-2-((7-methoxy-2-methyl-1,2,3,4-tetrahydroisoquinolin-6-yl)amino)pyrimidin-4-yl)amino)phenyl)dimethylphosphine oxide]"
11,< 5 nM,"CCP(=O)(CC)c1ccccc1Nc1nc(Nc2cc3c(cc2Cl)CCN(C)C3)ncc1Cl [Example I-20, (2-((5-chloro-2-((6-chloro-2-methyl-1,2,3,4-tetrahydroisoquinolin-7-yl)amino)pyrimidin-4-yl)amino)phenyl)diethylphosphine oxide]"
12,< 5 nM,"COc1cc2c(cc1Nc1ncc(Br)c(Nc3ccccc3P(C)(C)=O)n1)CN(C)CC2 [Example I-22, (2-((5-bromo-2-((6-methoxy-2-methyl-1,2,3,4-tetrahydroisoquinolin-7-yl)amino)pyrimidin-4-yl)amino)phenyl)dimethylphosphine oxide]"
13,10 to 100 nM,"COc1cc2c(cc1Nc1ncc(F)c(Nc3ccccc3P(C)(C)=O)n1)CN(C)CC2 [Example I-26, (2-((5-fluoro-2-((6-methoxy-2-methyl-1,2,3,4-tetrahydroisoquinolin-7-yl)amino)pyrimidin-4-yl)amino)phenyl)dimethylphosphine oxide]"
14,5 to 10 nM,"COc1cc2c(cc1Nc1ncc(C(F)(F)F)c(Nc3ccccc3P(C)(C)=O)n1)CN(C)CC2 [Example I-27, (2-((2-((6-methoxy-2-methyl-1,2,3,4-tetrahydroisoquinolin-7-yl)amino)-5-(trifluoromethyl)pyrimidin-4-yl)amino)phenyl)dimethylphosphine oxide]"
15,< 5 nM,"COc1cc2c(cc1Nc1ncc(Cl)c(Nc3ccccc3P(C)(C)=O)n1)C(C)N(C)CC2 (stereo not shown) [Example I-29, (2-((5-chloro-2-((6-methoxy-1,2-dimethyl-1,2,3,4-tetrahydroisoquinolin-7-yl)amino)pyrimidin-4-yl)amino)phenyl)dimethylphosphine oxide]"
